# From patent publication US7153525B1, “Microemulsions as precursors to solid nanoparticles” (The University of Kentucky Research Foundation, priority 2000, dated 2006)
# What was measured:
# [1] = Solubility of fluorosurfactants in perflubron; conditions: PDFOA at 25° C.
# [2] = Pseudo-phase diagram fluorosurfactant screen: ethanol incorporation in E/F microemulsions; format: physicochemical; conditions: maximum ethanol in stable clear E/F microemulsion
# Description: Pseudo-Phase Diagrams: Fluorosurfactant Screen. Studies focused on E/F microemulsions that allowed for maximum solubilization of ethanol. […] Briefly, a small amount of ethanol was added to defined perflubron (X %)/(fluorosurfactant) (100-X %) mixtures in an attempt to solubilize ethanol and define the microemulsion window (i.e., portion of diagram that represents a clear system). […] While the mixture was stirring, ethanol was added in 5 μL (=[…] ethanol) aliquots. The clarity (transparency) of the systems as a function of the percentages of the three phases was plotted in order to define the microemulsion window, if any. This screen was repeated for each of the fluorosurfactant candidates.
# [3] = Droplet and particle size by photon correlation spectroscopy; format: physicochemical
# Description: Modeling of E/F microemulsions: An ethanol-in-fluorocarbon(E/F) microemulsion was made having the following components: perflubron (0.7382 g), PDFOA (0.3195 g), and ethanol (0.3603 g). The weight of ethanol corresponded to 25.4% w/w of the final microemulsionor 65.7% of the microemulsion window (see FIG. 2). The average droplet size of 34.9 nm determined by photon correlation spectroscopy (dynamic light scattering at 11.3° for 300 seconds) agreed very well with the predicted ethanol droplet size based on simple mathematical modeling of surfactant-coated ethanol droplets. The total surface area of ethanol droplets that have an average diameter of 34.9 nm can be calculated in a series of equations as follows: Volume of one ethanol droplet=πd^3/6=2.226×10^−17 cm^3 (Equation 1) Total number of ethanol droplets=(0.3603 g[…])/[…]=1.989×10^16 droplets (Equation 2) Total surface area of each droplet=πd^2=3.827×10^−11 cm^2 (Equation 3) Total surface area of all ethanol droplets=1.989×10^16 droplets*3.827×10^−11 cm^2=760966 cm^2. (Equation 4) If we assume that PDFOA head-group (Mw 414.06 g/mol) occupies a space of 30 Å^2, then we can calculate the number of PDFOA molecules needed to cover the total surface area of all ethanol droplets from Equation 4 as: Total number of PDFOA molecules needed to cover the total surface area of all ethanol droplets=760966 cm^2/30×10^−16 cm^2=2.537×10^20 molecules of PDFOA. (Equation 5) Thus, 2.537×10^20 molecules of PDFOA would theoretically be needed to coat all of the surface area provided by all of the ethanol droplets. The ratio of ethanol to PDFOA molecules 65.7% through the microemulsion window was 10:1. […] The actual amount of PDFOA used to prepare the microemulsion was 0.3195 g which was within 3% of the predicted amount (0.3195 g/0.3282 g=0.973 or 97.3%) based on the measured droplet size of ethanol. Thus, this simple modeling supports the formation of a E/F microemulsion as well as the particle sizing method used.
# To determine the existence of an oil-in-water microemulsion window for the microemulsion precursor, exactly two (2) milligrams of emulsifying wax were weighed accurately into ten separate 7-mL glass vials and melted at 50° C. on a temperature calibrated magnetic hot plate. Water (0.2 μm filtered) was then added (750–1000 μL) to form a homogeneous milky slurry in the stirring water at 50° C. To form the microemulsion precursor, the surfactant polyoxy 20 stearyl ether (100 mM) in water was added (0–250 μL) so that the final surfactant concentration ranged from 0 mM to 25 mM in the ten vials. The microemulsion precursor was then removed from heat (52–54° C.) and allowed to cool to 25° C. while stirring. […] Thus, an apparent microemulsion window was defined. One hundred (100) μL of each cooled system was taken and diluted with 900 μL water. The particle size of the diluted solid nanoparticles was determined using a Coulter N4 Plus Sub-Micron Particle Sizer at 20° C. by scattering light at 90° for 120 seconds. The particle sizes of systems with no surfactant added could not be determined since the systems contained precipitates that were greater than 3000 nm in diameter. […] To determine if the measured droplet sizes in either the microemulsion nanotemplate or the cured solid nanoparticles were due to the presence of surfactant micelles, samples were made as described above with no emulsifying wax and with final surfactant concentrations ranging from 0 mM to 100 mM in water. […] It is likely that the relatively heterogeneous nature of the polymeric surfactant makes the determination of its CMC difficult using conventional techniques. Photon correlation spectroscopy, using a Coulter N4 Plus Submicron Particle Sizer, was used to determine the existence and the size of the surfactant micelles.
# Preparation of cationic nanoparticles made from microemulsion precursors: Exactly 2 mg of emulsifying wax was placed into six 7-ml glass scintillation vials. […]
Molecule,Solubility in perflubron [1],Final (Ethanol) % w/w Solubilized in Perflubron/Fluorosurfactant (70/3 w/w) [2],also measured
"O=C(O)C(F)(F)C(F)(F)C(F)(F)C(F)(F)C(F)(F)C(F)(F)F [D5, Tridecafluoroheptanoicacid]",soluble,,
"O=C(O)C(F)(F)C(F)(F)C(F)(F)C(F)(F)C(F)(F)C(F)(F)C(F)(F)C(F)(F)C(F)(F)C(F)(F)C(F)(F)C(F)(F)C(F)(F)F [Perfluorotetradecanoicacid (D6), Perfluorotetradecanoicacid]",,66.6 % w/w,
"CC(=O)C=C(C)[O-].CC(=O)C=C(C)[O-].CC(=O)C=C(C)[O-].[Gd+3] [GdAcAc, Gadolinium acetylacetonate]",,,Effect of GdAcAc entrapment on particle sizes of cured nanoparticles ([3]; 0.1 mg to 1 mg in emulsifying wax and Brij 72 nanoparticles (2 mg/mL)): little or no effect; Particle size of cured nanoparticles ([3]; cooled to 25° C.): about 50 nm
"O=C(O)C(F)(F)C(F)(F)C(F)(F)C(F)(F)C(F)(F)C(F)(F)C(F)(F)C(F)(F)C(F)(F)C(F)(F)C(F)(F)F [Perfluorododecanoicacid (D7), Perfluorododecanoicacid]",,59.2 % w/w,
"O=C(O)C(F)(F)C(F)(F)C(F)(F)C(F)(F)C(F)(F)C(F)(F)C(F)(F)F [PDFOA, Pentadecafluorooctanoicacid]",did not dissolve,up to 37.2 % w/w,Final (Ethanol) % w/w Solubilized in Perflubron/Fluorosurfactant (70/3 w/w) ([2]; listed as Pentadecafluorooctanoicacid (PDFOA)): 37.2 % w/w
"COC(=O)C(F)(F)C(F)(F)C(F)(F)C(F)(F)C(F)(F)C(F)(F)C(F)(F)F [D8, Pentadecafluoromethyloctanoate]",soluble,,
"ASF-pal: asialofetuin derivatized with about 12 palmitate arms per molecule, hepatocyte-specific ligand",,,"Size of micelles formed alone in water ([3]; 67 μg/mL): 3–15 nm; Size of larger aggregates formed alone in water ([3]; 1340 μg/mL): 40–300 nm; Size of micelles formed alone in water ([3]; 1340 μg/mL): 3–10 nm; Effect of adding ASF-pal on particle size of cured nanoparticles ([3]; ASF-pal added to 200 μg nanoparticles per mL, 1 hour at 25° C.): only a small effect"
"OCCC(F)(F)C(F)(F)C(F)(F)C(F)(F)C(F)(F)C(F)(F)F [D3, Tridecafluoro-1-octanol]",soluble,,
